The test addresses T1, human PAH with the R408W mutation (Homo sapiens, UniProt P00439, R408W).
T1 construct: expressed in transfected cells
T1 sequence (P00439 1-452 R408W): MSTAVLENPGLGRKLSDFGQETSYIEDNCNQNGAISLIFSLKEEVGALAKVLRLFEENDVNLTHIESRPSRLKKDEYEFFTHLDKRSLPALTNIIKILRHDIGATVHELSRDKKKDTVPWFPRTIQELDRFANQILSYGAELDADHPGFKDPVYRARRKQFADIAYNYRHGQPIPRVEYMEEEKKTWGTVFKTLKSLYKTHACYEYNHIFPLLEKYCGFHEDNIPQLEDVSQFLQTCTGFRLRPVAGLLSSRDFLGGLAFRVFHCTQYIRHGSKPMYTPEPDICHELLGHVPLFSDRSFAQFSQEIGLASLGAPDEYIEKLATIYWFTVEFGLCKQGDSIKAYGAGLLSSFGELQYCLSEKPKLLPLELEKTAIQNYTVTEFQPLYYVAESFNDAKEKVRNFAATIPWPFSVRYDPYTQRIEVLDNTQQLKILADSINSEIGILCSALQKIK
The test is described as follows: Cell Based Phenylalanine Flux Assay. To be noted: A375 cells expressing human R408W PAH; 24 hrs compound incubation; 13C-Tyrosine by LC-MS; average where tested multiple times; read-out: AC50.

Regarding `O=C(c1nncs1)N1CCc2[nH]cnc2[C@@H]1c1nc2cc(F)ccc2s1` [Example 1300, (R)-(4-(5-fluorobenzo[d]thiazol-2-yl)-6,7-dihydro-1H-imidazo[4,5-c]pyridin-5(4H)-yl)(1,3,4-thiadiazol-2-yl)methanone], the half-maximal activity concentration (AC50) (in general, the concentration at which the activity in the assay is half-maximal) was 1000 to 5000 nM.
Turning to `O=C(c1cnn2ccc(Cl)cc12)N1CCc2[nH]cnc2[C@H]1c1nc2cccc(F)c2s1` [Example 1301], the AC50 was below 500 nM.
Under `O=C(c1cnn2ccc(Cl)cc12)N1CCc2[nH]cnc2[C@@H]1c1nc2cccc(F)c2s1` [Example 1302, (R)-(5-chloropyrazolo[1,5-a]pyridin-3-yl)(4-(7-fluorobenzo[d]thiazol-2-yl)-6,7-dihydro-1H-imidazo[4,5-c]pyridin-5(4H)-yl)methanone] stands below 500 nM; under `Cc1ccc2nc([C@@H]3c4nc[nH]c4CCN3C(=O)c3cncs3)sc2c1` [Example 1303, (S)-(4-(6-methylbenzo[d]thiazol-2-yl)-6,7-dihydro-1H-imidazo[4,5-c]pyridin-5(4H)-yl)(thiazol-5-yl)methanone], 500 to 1000 nM; under `Cc1ccc2nc([C@H]3c4nc[nH]c4CCN3C(=O)c3cncs3)sc2c1` [Example 1304, (R)-(4-(6-methylbenzo[d]thiazol-2-yl)-6,7-dihydro-1H-imidazo[4,5-c]pyridin-5(4H)-yl)(thiazol-5-yl)methanone], above 5000 nM.
On to `Cc1cccc2sc([C@@H]3c4nc[nH]c4CCN3C(=O)c3cncs3)nc12` [Example 1305, (S)-(4-(4-methylbenzo[d]thiazol-2-yl)-6,7-dihydro-1H-imidazo[4,5-c]pyridin-5(4H)-yl)(thiazol-5-yl)methanone], for which the AC50 is 500 to 1000 nM.
Regarding `Cc1cccc2sc([C@H]3c4nc[nH]c4CCN3C(=O)c3cncs3)nc12` [Example 1306, (R)-(4-(4-methylbenzo[d]thiazol-2-yl)-6,7-dihydro-1H-imidazo[4,5-c]pyridin-5(4H)-yl)(thiazol-5-yl)methanone], the AC50 was 1000 to 5000 nM.
Regarding `O=C(CC1CCC1)N1CCc2[nH]cnc2[C@H]1c1nc2ccccc2s1` [Example 1307], the half-maximal activity concentration (AC50) is below 500 nM.
As for `O=C(CC1CCC1)N1CCc2[nH]cnc2[C@@H]1c1nc2ccccc2s1` [Example 1308, (R)-1-(4-(benzo[d]thiazol-2-yl)-6,7-dihydro-1H-imidazo[4,5-c]pyridin-5(4H)-yl)-2-cyclobutylethanone], the AC50 fell in the range of 1000 to 5000 nM.
Regarding `COCc1ccc2c(C(=O)N3CCc4[nH]cnc4[C@H]3c3nc4ccccc4s3)cnn2c1` [Example 1309], the AC50 lay in the range of 500 to 1000 nM.
The value for `COCc1ccc2c(C(=O)N3CCc4[nH]cnc4[C@@H]3c3nc4ccccc4s3)cnn2c1` [Example 1310, (R)-(4-(benzo[d]thiazol-2-yl)-6,7-dihydro-1H-imidazo[4,5-c]pyridin-5(4H)-yl)(6-(methoxymethyl)pyrazolo[1,5-a]pyridin-3-yl)methanone] was above 5000 nM; that for `CN(C)Cc1ccc2c(C(=O)N3CCc4[nH]cnc4[C@H]3c3nc4ccccc4s3)cnn2c1` [Example 1311] was 500 to 1000 nM; that for `CN(C)Cc1ccc2c(C(=O)N3CCc4[nH]cnc4[C@@H]3c3nc4ccccc4s3)cnn2c1` [Example 1312, (R)-(4-(benzo[d]thiazol-2-yl)-6,7-dihydro-1H-imidazo[4,5-c]pyridin-5(4H)-yl)(6-((dimethylamino)methyl)pyrazolo[1,5-a]pyridin-3-yl)methanone] was above 5000 nM.
`O=C(c1cnn2cc(CN3CCC(F)(F)C3)ccc12)N1CCc2[nH]cnc2[C@H]1c1nc2ccccc2s1` [Example 1313]: the half-maximal activity concentration (AC50) was 500 to 1000 nM.
Turning to `O=C(c1cnn2cc(CN3CCC(F)(F)C3)ccc12)N1CCc2[nH]cnc2[C@@H]1c1nc2ccccc2s1` [Example 1314, (R)-(4-(benzo[d]thiazol-2-yl)-6,7-dihydro-1H-imidazo[4,5-c]pyridin-5(4H)-yl)(6-((3,3-difluoropyrrolidin-1-yl)methyl)pyrazolo[1,5-a]pyridin-3-yl)methanone], the AC50 is above 5000 nM.
On to `Cc1cccc2nc([C@H]3c4nc[nH]c4CCN3C(=O)c3cncs3)sc12` [Example 1315, (R)-(4-(7-methylbenzo[d]thiazol-2-yl)-6,7-dihydro-1H-imidazo[4,5-c]pyridin-5(4H)-yl)(thiazol-5-yl)methanone], for which the AC50 lay in the range of 1000 to 5000 nM.
Regarding `Cc1cccc2nc([C@@H]3c4nc[nH]c4CCN3C(=O)c3cncs3)sc12` [Example 1316, (S)-(4-(7-methylbenzo[d]thiazol-2-yl)-6,7-dihydro-1H-imidazo[4,5-c]pyridin-5(4H)-yl)(thiazol-5-yl)methanone], the AC50 is below 500 nM.
Regarding `O=C(c1cnc(-c2ccccn2)o1)N1CCc2[nH]cnc2[C@H]1c1nc2ccccc2s1` [Example 1317], the half-maximal activity concentration (AC50) is below 500 nM.
Under `O=C(c1cnc(-c2ccccn2)o1)N1CCc2[nH]cnc2[C@@H]1c1nc2ccccc2s1` [Example 1318, (R)-(4-(benzo[d]thiazol-2-yl)-6,7-dihydro-1H-imidazo[4,5-c]pyridin-5(4H)-yl)(2-(pyridin-2-yl)oxazol-5-yl)methanone] stands 1000 to 5000 nM; under `Cc1ncoc1C(=O)N1CCc2[nH]cnc2[C@H]1c1nc2c(F)cccc2s1` [Example 1319, (S)-(4-(4-fluorobenzo[d]thiazol-2-yl)-6,7-dihydro-1H-imidazo[4,5-c]pyridin-5(4H)-yl)(4-methyloxazol-5-yl)methanone], below 500 nM.
For the compound `Cc1ncoc1C(=O)N1CCc2[nH]cnc2[C@@H]1c1nc2c(F)cccc2s1` [Example 1320, (R)-(4-(4-fluorobenzo[d]thiazol-2-yl)-6,7-dihydro-1H-imidazo[4,5-c]pyridin-5(4H)-yl)(4-methyloxazol-5-yl)methanone], the AC50 fell in the range of 1000 to 5000 nM.
As for `Cc1nc(C)c(C(=O)N2CCc3[nH]cnc3[C@H]2c2nc3c(F)cccc3s2)o1` [Example 1321], the half-maximal activity concentration (AC50) was below 500 nM.
Turning to `Cc1nc(C)c(C(=O)N2CCc3[nH]cnc3[C@@H]2c2nc3c(F)cccc3s2)o1` [Example 1322, (R)-(2,4-dimethyloxazol-5-yl)(4-(4-fluorobenzo[d]thiazol-2-yl)-6,7-dihydro-1H-imidazo[4,5-c]pyridin-5(4H)-yl)methanone], the concentration at half-maximal activity (AC50) was above 5000 nM.
For the compound `O=C(c1cnc(N2CCCC2)s1)N1CCc2[nH]cnc2[C@H]1c1nc2ccccc2s1` [Example 1323], the AC50 is below 500 nM.
The value for `O=C(c1cnc(N2CCCC2)s1)N1CCc2[nH]cnc2[C@@H]1c1nc2ccccc2s1` [Example 1324, (R)-(4-(benzo[d]thiazol-2-yl)-6,7-dihydro-1H-imidazo[4,5-c]pyridin-5(4H)-yl)(2-(pyrrolidin-1-yl)thiazol-5-yl)methanone] was 1000 to 5000 nM; that for `O=C(c1ocnc1C(F)(F)F)N1CCc2[nH]cnc2[C@H]1c1nc2ccccc2s1` [Example 1325] was below 500 nM.
`O=C(c1ocnc1C(F)(F)F)N1CCc2[nH]cnc2[C@@H]1c1nc2ccccc2s1` [Example 1326, (R)-(4-(benzo[d]thiazol-2-yl)-6,7-dihydro-1H-imidazo[4,5-c]pyridin-5(4H)-yl)(4-(trifluoromethyl)oxazol-5-yl)methanone]: the AC50 is 500 to 1000 nM.
In the case of `O=C(c1ocnc1C1CC1)N1CCc2[nH]cnc2[C@H]1c1nc2ccccc2s1` [Example 1327], the AC50 is below 500 nM.
On to `O=C(c1ocnc1C1CC1)N1CCc2[nH]cnc2[C@@H]1c1nc2ccccc2s1` [Example 1328, (R)-(4-(benzo[d]thiazol-2-yl)-6,7-dihydro-1H-imidazo[4,5-c]pyridin-5(4H)-yl)(4-cyclopropyloxazol-5-yl)methanone], for which the AC50 is 1000 to 5000 nM.
Take `O=C(c1cnc(C2CC2)o1)N1CCc2[nH]cnc2[C@H]1c1nc2c(F)cccc2s1` [Example 1329]: the AC50 was below 500 nM.
The value for `O=C(c1cnc(C2CC2)o1)N1CCc2[nH]cnc2[C@@H]1c1nc2c(F)cccc2s1` [Example 1330, (R)-(2-cyclopropyloxazol-5-yl)(4-(4-fluorobenzo[d]thiazol-2-yl)-6,7-dihydro-1H-imidazo[4,5-c]pyridin-5(4H)-yl)methanone] was 1000 to 5000 nM; that for `Cc1nnc(C(=O)N2CCc3[nH]cnc3[C@H]2c2nc3cccc(F)c3s2)s1` [Example 1331, (S)-(4-(7-fluorobenzo[d]thiazol-2-yl)-6,7-dihydro-1H-imidazo[4,5-c]pyridin-5(4H)-yl)(5-methyl-1,3,4-thiadiazol-2-yl)methanone] was 500 to 1000 nM; that for `Cc1nnc(C(=O)N2CCc3[nH]cnc3[C@@H]2c2nc3cccc(F)c3s2)s1` [Example 1332, (R)-(4-(7-fluorobenzo[d]thiazol-2-yl)-6,7-dihydro-1H-imidazo[4,5-c]pyridin-5(4H)-yl)(5-methyl-1,3,4-thiadiazol-2-yl)methanone] was 1000 to 5000 nM.
On to `O=C(c1cnn2cc(F)ccc12)N1CCc2[nH]cnc2[C@H]1c1nc2cc(F)ccc2s1` [Example 1333, (S)-(4-(5-fluorobenzo[d]thiazol-2-yl)-6,7-dihydro-1H-imidazo[4,5-c]pyridin-5(4H)-yl)(6-fluoropyrazolo[1,5-a]pyridin-3-yl)methanone], for which the AC50 is 500 to 1000 nM.
Consider `O=C(c1cnn2cc(F)ccc12)N1CCc2[nH]cnc2[C@@H]1c1nc2cc(F)ccc2s1` [Example 1334, (R)-(4-(5-fluorobenzo[d]thiazol-2-yl)-6,7-dihydro-1H-imidazo[4,5-c]pyridin-5(4H)-yl)(6-fluoropyrazolo[1,5-a]pyridin-3-yl)methanone], for which the AC50 was above 5000 nM.

The record behind these values is patent publication US20250171438A1 (Agios Pharmaceuticals, Inc., priority 2022, published 2025).
